Measurements: ChEMBL document CHEMBL1201862, “PubChem BioAssay data set” (2004)
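Step 1: Grow cells in 96-well plates. Step 2: Expose to compound for 48 hours at 5 concentrations. Step 3: Interpolate endpoints linearly; if unreached, use highest concentration. The concentration for 50% growth inhibition is given as GI50.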 Active and inactive are the calls of the source. No stated cut-off is given here; in the data, active = GI50 up to about 1.1 µM and inactive = higher.

Experiments:
Test in all cases: NCI-60 cell line screen, 48 h
[1] = system: PC-3
[2] = system: HCT-116
[3] = system: RXF 393
[4] = system: UACC-62
[5] = system: UACC-257
[6] = system: SF-539
[7] = system: HCT-15
[8] = system: ACHN
[9] = system: CCRF-CEM
[10] = system: SK-MEL-5
[11] = system: BT-549
[12] = system: CAKI-1
[13] = system: A498
[14] = system: MDA-MB-435
[15] = system: NCI/ADR-RES
[16] = system: MCF7
[17] = system: MDA-MB-231
[18] = system: K562
[19] = system: LOX IMVI
[20] = system: OVCAR-8

Compound | GI50 [1] | GI50 [2] | GI50 [3] | GI50 [4] | GI50 [5] | GI50 [6] | GI50 [7] [µM] | GI50 [8] | GI50 [9] | GI50 [10] | GI50 [11] | GI50 [12] | GI50 [13] | GI50 [14] | GI50 [15] | GI50 [16] | GI50 [17] | GI50 [18] | GI50 [19] | GI50 [20]
CCCCc1c(N(C)C)c(OC(C)=O)c(-c2cn(C)c3ccccc23)oc1=O | 18.6 µM (inactive) | 17.3 µM (inactive) | 41 µM (inactive) | 14.1 µM (inactive) | 22.5 µM (inactive) | 22.3 µM (inactive) | 19.4 | 17.9 µM (inactive) | 33.4 µM (inactive) | 13.8 µM (inactive) | 28.3 µM (inactive) | 30.7 µM (inactive) | 28.8 µM (inactive) | 19.1 µM (inactive) | 20.3 µM (inactive) | 13.1 µM (inactive) |  |  |  | 
Cc1nnc2n1N=C(c1ccccc1)/C(=C/c1ccc(-c3ccc(Cl)cc3)o1)S2 | 11.9 µM (inactive) | 12.2 µM (inactive) | 10.8 µM (inactive) | 12.4 µM (inactive) | 16.6 µM (inactive) |  | 8.53 | 13.5 µM (inactive) | 2.71 µM (inactive) | 13.6 µM (inactive) | 11.4 µM (inactive) | 15.1 µM (inactive) | 17.3 µM (inactive) | 4.61 µM (inactive) |  | 2.11 µM (inactive) | 15.1 µM (inactive) | 7.85 µM (inactive) |  | 
Cc1ccc(-[n+]2cc([O-])on2)cc1 | > 100 µM (inactive) | > 100 µM (inactive) | > 100 µM (inactive) | > 100 µM (inactive) | > 100 µM (inactive) |  | > 100 | > 100 µM (inactive) | > 100 µM (inactive) | > 100 µM (inactive) | > 100 µM (inactive) | > 100 µM (inactive) | 65.8 µM (inactive) | > 100 µM (inactive) | > 100 µM (inactive) |  | > 100 µM (inactive) | > 100 µM (inactive) | > 100 µM (inactive) | > 100 µM (inactive)
Cc1ccc(S(=O)(=O)N2CCCSCCSCCCN(S(=O)(=O)c3ccc(C)cc3)CC2)cc1 |  | > 100 µM (inactive) | > 100 µM (inactive) | > 100 µM (inactive) | > 100 µM (inactive) | > 100 µM (inactive) | > 100 | > 100 µM (inactive) |  | > 100 µM (inactive) | > 100 µM (inactive) |  | > 100 µM (inactive) | > 100 µM (inactive) | > 100 µM (inactive) | > 100 µM (inactive) | > 100 µM (inactive) |  |  | > 100 µM (inactive)
O=C(O)C1C2CCC(C2)C1c1ccccc1 (stereo not given) | > 100 µM (inactive) | > 100 µM (inactive) | > 100 µM (inactive) | > 100 µM (inactive) | > 100 µM (inactive) | > 100 µM (inactive) | > 100 | > 100 µM (inactive) | > 100 µM (inactive) | > 100 µM (inactive) |  | > 100 µM (inactive) | > 100 µM (inactive) | > 100 µM (inactive) | > 100 µM (inactive) | > 100 µM (inactive) | > 100 µM (inactive) | > 100 µM (inactive) | > 100 µM (inactive) | > 100 µM (inactive)
Cn1nc(S(N)(=O)=O)s/c1=N/S(=O)(=O)c1ccc(N)cc1 | > 100 µM (inactive) |  | > 100 µM (inactive) | > 100 µM (inactive) |  | > 100 µM (inactive) | > 100 | > 100 µM (inactive) |  |  | > 100 µM (inactive) | > 100 µM (inactive) | > 100 µM (inactive) |  | > 100 µM (inactive) |  | > 100 µM (inactive) |  |  | > 100 µM (inactive)
C/C(=N\c1c2ccccc2nc2ccccc12)N(C)C | 14.6 µM (inactive) | 10.4 µM (inactive) | 23.8 µM (inactive) | 15.2 µM (inactive) | 16.9 µM (inactive) |  | 28.6 | 19.8 µM (inactive) | 8.87 µM (inactive) | 14.6 µM (inactive) | 25.8 µM (inactive) | 24.3 µM (inactive) |  | 22.5 µM (inactive) | 16.3 µM (inactive) | 25.8 µM (inactive) | 14.6 µM (inactive) | 3.91 µM (inactive) | 11.6 µM (inactive) | 13.3 µM (inactive)
CCN(CC)CCN(/C(=N/c1ccccc1)N1CCCCC1)c1ccccc1 | 2.72 µM (inactive) | 0.498 µM (active) | 17.7 µM (inactive) | 6.12 µM (inactive) | 10.6 µM (inactive) | 18.7 µM (inactive) | 17.2 |  | 4.49 µM (inactive) | 5.08 µM (inactive) | 13.7 µM (inactive) | 27.8 µM (inactive) |  | 3.91 µM (inactive) |  | 5.53 µM (inactive) | 3.89 µM (inactive) | 2.18 µM (inactive) | 3.14 µM (inactive) | 12.2 µM (inactive)
O=C(/C=C/c1ccc(F)c(F)c1)OCCc1ccccc1 | > 100 µM (inactive) | 74.5 µM (inactive) |  | > 100 µM (inactive) | > 100 µM (inactive) | > 100 µM (inactive) | 58.5 | > 100 µM (inactive) | 29.8 µM (inactive) | 38.5 µM (inactive) | > 100 µM (inactive) | 67.1 µM (inactive) |  | > 100 µM (inactive) | > 100 µM (inactive) | 81.8 µM (inactive) | > 100 µM (inactive) | 51.3 µM (inactive) | 89.9 µM (inactive) | > 100 µM (inactive)
CC1(C)CC2(C)CC1CC2NC(=O)CCN1CCOCC1 (stereo not given) | > 100 µM (inactive) | > 100 µM (inactive) | > 100 µM (inactive) | > 100 µM (inactive) | > 100 µM (inactive) | > 100 µM (inactive) |  | > 100 µM (inactive) | > 100 µM (inactive) | > 100 µM (inactive) | > 100 µM (inactive) | > 100 µM (inactive) | > 100 µM (inactive) | > 100 µM (inactive) |  | > 100 µM (inactive) | > 100 µM (inactive) | > 100 µM (inactive) |  | > 100 µM (inactive)
COc1ccc(C2SC(=N)Nc3c2c(C)nn3C(=O)c2ccc(Cl)cc2)cc1OC (stereo not given) | > 10 µM (inactive) | > 10 µM (inactive) | > 10 µM (inactive) | > 10 µM (inactive) | > 10 µM (inactive) | > 10 µM (inactive) | > 10 | > 10 µM (inactive) | > 10 µM (inactive) | > 10 µM (inactive) | > 10 µM (inactive) | > 10 µM (inactive) |  | > 10 µM (inactive) | > 10 µM (inactive) | > 10 µM (inactive) | > 10 µM (inactive) | > 10 µM (inactive) | > 10 µM (inactive) | > 10 µM (inactive)
CC(=O)OCC1OC(OC(C)=O)C(Nc2ncc(-c3ccc(C)cc3)s2)C(OC(C)=O)C1OC(C)=O (stereo not given) | 15.9 µM (inactive) | 16.4 µM (inactive) | 16.1 µM (inactive) | 14.4 µM (inactive) | 20.1 µM (inactive) | 20.7 µM (inactive) | 22.5 | 14.6 µM (inactive) | 4.4 µM (inactive) | 15.8 µM (inactive) | 18.6 µM (inactive) | 16.9 µM (inactive) |  | 15.8 µM (inactive) | 30.6 µM (inactive) | 20.3 µM (inactive) | 19.9 µM (inactive) | 15.7 µM (inactive) | 13.2 µM (inactive) | 24 µM (inactive)
CN(C)NC1=NS(=O)(=O)c2cc3c(=O)n(C)[nH]c3cc2S1 | > 10 µM (inactive) | > 10 µM (inactive) | > 10 µM (inactive) |  | > 10 µM (inactive) | > 10 µM (inactive) | > 10 | > 10 µM (inactive) | > 10 µM (inactive) | > 10 µM (inactive) | > 10 µM (inactive) | > 10 µM (inactive) | > 10 µM (inactive) |  | > 10 µM (inactive) | 5.05 µM (inactive) |  | > 10 µM (inactive) | > 10 µM (inactive) | > 10 µM (inactive)
COc1cc(COC(=O)N[C@H](C(=O)O)C(C)(C)C)c([N+](=O)[O-])cc1OC | > 100 µM (inactive) | > 100 µM (inactive) | > 100 µM (inactive) | > 100 µM (inactive) | > 100 µM (inactive) | > 100 µM (inactive) | > 100 | > 100 µM (inactive) | > 100 µM (inactive) | > 100 µM (inactive) | > 100 µM (inactive) |  | > 100 µM (inactive) | > 100 µM (inactive) | > 100 µM (inactive) | > 100 µM (inactive) |  | > 100 µM (inactive) |  | > 100 µM (inactive)
COc1ccc(OC)c(NC(=O)c2c(Cl)c(Cl)c(Cl)c(Cl)c2-c2nc3ccccc3[nH]2)c1 | > 100 µM (inactive) | > 100 µM (inactive) | > 100 µM (inactive) | > 100 µM (inactive) | > 100 µM (inactive) | > 100 µM (inactive) | > 100 | > 100 µM (inactive) | 49.2 µM (inactive) | > 100 µM (inactive) | > 100 µM (inactive) | > 100 µM (inactive) | > 100 µM (inactive) | > 100 µM (inactive) | > 100 µM (inactive) | 76.7 µM (inactive) |  | > 100 µM (inactive) | > 100 µM (inactive) | 56.9 µM (inactive)
CCCn1c(=O)c2nn3c(=O)n(CCC)c(=O)c3nn2c1=O | > 100 µM (inactive) | > 100 µM (inactive) | > 100 µM (inactive) | > 100 µM (inactive) | > 100 µM (inactive) | > 100 µM (inactive) | > 100 | > 100 µM (inactive) | > 100 µM (inactive) | > 100 µM (inactive) | > 100 µM (inactive) | > 100 µM (inactive) |  | > 100 µM (inactive) | > 100 µM (inactive) | > 100 µM (inactive) |  | > 100 µM (inactive) | > 100 µM (inactive) | > 100 µM (inactive)
